Laboratory results reported in PubChem BioAssay AID1259407 (Chemical Carcinogenesis Research Information System (CCRIS), 2018).
Active and inactive are the calls of the source. How the calls were made is not given here.

Tested on: CCRIS mutagenicity, Ames/micronucleus/aberration tests
Assay: CCRIS mutagenicity studies
Settings: Test System: AMES SALMONELLA TYPHIMURIUM
[1] = Strain/Indicator: TA100, Metabolic Activation: NONE, Method: STANDARD PLATE
[2] = Strain/Indicator: TA98, Metabolic Activation: NONE, Method: STANDARD PLATE
[3] = Strain/Indicator: TA98, Metabolic Activation: RAT, LIVER, S-9, AROCLOR 1254, Method: STANDARD PLATE
[4] = Strain/Indicator: TA100, Metabolic Activation: RAT, LIVER, S-9, AROCLOR 1254, Method: STANDARD PLATE
[5] = Strain/Indicator: TA1535, Metabolic Activation: NONE, Method: STANDARD PLATE
[6] = Strain/Indicator: TA1535, Metabolic Activation: RAT, LIVER, S-9, AROCLOR 1254, Method: STANDARD PLATE
[7] = Strain/Indicator: TA1537, Metabolic Activation: NONE, Method: STANDARD PLATE
[8] = Strain/Indicator: TA1537, Metabolic Activation: RAT, LIVER, S-9, AROCLOR 1254, Method: STANDARD PLATE

SMILES	mutagenic call (Strain/Indicator: TA100, Metabolic Activation: NONE, Method: PREINCUBATION)	mutagenic call [1]	mutagenic call (Strain/Indicator: TA100, Metabolic Activation: RAT, KIDNEY, S-9, AROCLOR 1254, Method: STANDARD PLATE)	mutagenic call (Strain/Indicator: TA2638, Metabolic Activation: NONE, Method: PREINCUBATION)	mutagenic call (Strain/Indicator: TA100, Metabolic Activation: RAT KIDNEY, MICROSOMES, Method: STANDARD PLATE)	mutagenic call (Strain/Indicator: TA100, Metabolic Activation: RAT LIVER, MICROSOMES, Method: STANDARD PLATE)	mutagenic call [2]	mutagenic call [3]	mutagenic call [4]	mutagenic call [5]	mutagenic call [6]	mutagenic call [7]	mutagenic call [8]	mutagenic call (Strain/Indicator: TA1538, Metabolic Activation: NONE, Method: STANDARD PLATE)	mutagenic call (Strain/Indicator: TA1538, Metabolic Activation: RAT, LIVER, S-9, AROCLOR 1254, Method: STANDARD PLATE)
N[C@@H](CSC(Cl)=C(Cl)Cl)C(=O)O	active; positive	active; positive	active; positive	inactive; negative											
N[C@@H](CCC(=O)NNc1ccccc1)C(=O)O		inactive; negative			active; positive	inactive; negative									
CCOC(=O)C(C)=O		inactive; negative					inactive; negative	inactive; negative	inactive; negative	inactive; negative	inactive; negative	inactive; negative	inactive; negative		
Cc1ccc2c(c1Nc1ccccc1)C(=O)c1ccccc1C2=O							inactive; negative	inactive; negative	active; positive	inactive; negative	inactive; negative	inactive; negative	inactive; negative	inactive; negative	inactive; negative
